From ChEMBL document CHEMBL2203039, “Azabenzthiazole inhibitors of leukotriene A₄ hydrolase” (Bioorg Med Chem Lett, 2012)

What was measured:
[1] = target: T1, Leukotriene A-4 hydrolase (Homo sapiens, UniProt P09960); test: Inhibition of human recombinant LTA4 hydrolase expressed in SF9 cells using LTA4 as substrate assessed as LTB4 production incubated for 10 mins prior to substrate addition measured after 10 to 30 mins by enzyme immunoassay; format: cell-based
T1 sequence (P09960 whole entry): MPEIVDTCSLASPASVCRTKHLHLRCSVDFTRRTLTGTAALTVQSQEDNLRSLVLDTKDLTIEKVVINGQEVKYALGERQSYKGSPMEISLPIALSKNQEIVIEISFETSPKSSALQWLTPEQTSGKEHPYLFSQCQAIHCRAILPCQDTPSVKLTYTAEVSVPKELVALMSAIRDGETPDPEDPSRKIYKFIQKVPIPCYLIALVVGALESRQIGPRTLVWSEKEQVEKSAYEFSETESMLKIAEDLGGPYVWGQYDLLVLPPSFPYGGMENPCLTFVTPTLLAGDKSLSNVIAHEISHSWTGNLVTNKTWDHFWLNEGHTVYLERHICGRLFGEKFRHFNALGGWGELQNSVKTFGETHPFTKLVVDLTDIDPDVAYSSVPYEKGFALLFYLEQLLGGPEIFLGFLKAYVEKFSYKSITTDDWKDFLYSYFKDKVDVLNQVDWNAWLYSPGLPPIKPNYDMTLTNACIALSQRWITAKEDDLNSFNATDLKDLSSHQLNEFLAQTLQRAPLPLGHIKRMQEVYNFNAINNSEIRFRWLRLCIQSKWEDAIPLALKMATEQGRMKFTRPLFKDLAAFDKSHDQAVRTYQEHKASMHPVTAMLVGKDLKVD

[2] = organism: Mus musculus; test: animal or person; format: functional, organism-based; conditions: Balb/c, Blood
[3] = organism: Mus musculus; test: animal or person; format: functional; conditions: Balb/c, 3 h, route oral
[4] = organism: Mus musculus; test: animal or person; format: functional; conditions: Balb/c, Blood, 3 h, route oral
[5] = target: T2, Voltage-gated inwardly rectifying potassium channel KCNH2 (Homo sapiens, UniProt Q12809); test: Inhibition of dofetilide binding to human ERG by radioligand binding assay
T2 sequence (Q12809 whole entry): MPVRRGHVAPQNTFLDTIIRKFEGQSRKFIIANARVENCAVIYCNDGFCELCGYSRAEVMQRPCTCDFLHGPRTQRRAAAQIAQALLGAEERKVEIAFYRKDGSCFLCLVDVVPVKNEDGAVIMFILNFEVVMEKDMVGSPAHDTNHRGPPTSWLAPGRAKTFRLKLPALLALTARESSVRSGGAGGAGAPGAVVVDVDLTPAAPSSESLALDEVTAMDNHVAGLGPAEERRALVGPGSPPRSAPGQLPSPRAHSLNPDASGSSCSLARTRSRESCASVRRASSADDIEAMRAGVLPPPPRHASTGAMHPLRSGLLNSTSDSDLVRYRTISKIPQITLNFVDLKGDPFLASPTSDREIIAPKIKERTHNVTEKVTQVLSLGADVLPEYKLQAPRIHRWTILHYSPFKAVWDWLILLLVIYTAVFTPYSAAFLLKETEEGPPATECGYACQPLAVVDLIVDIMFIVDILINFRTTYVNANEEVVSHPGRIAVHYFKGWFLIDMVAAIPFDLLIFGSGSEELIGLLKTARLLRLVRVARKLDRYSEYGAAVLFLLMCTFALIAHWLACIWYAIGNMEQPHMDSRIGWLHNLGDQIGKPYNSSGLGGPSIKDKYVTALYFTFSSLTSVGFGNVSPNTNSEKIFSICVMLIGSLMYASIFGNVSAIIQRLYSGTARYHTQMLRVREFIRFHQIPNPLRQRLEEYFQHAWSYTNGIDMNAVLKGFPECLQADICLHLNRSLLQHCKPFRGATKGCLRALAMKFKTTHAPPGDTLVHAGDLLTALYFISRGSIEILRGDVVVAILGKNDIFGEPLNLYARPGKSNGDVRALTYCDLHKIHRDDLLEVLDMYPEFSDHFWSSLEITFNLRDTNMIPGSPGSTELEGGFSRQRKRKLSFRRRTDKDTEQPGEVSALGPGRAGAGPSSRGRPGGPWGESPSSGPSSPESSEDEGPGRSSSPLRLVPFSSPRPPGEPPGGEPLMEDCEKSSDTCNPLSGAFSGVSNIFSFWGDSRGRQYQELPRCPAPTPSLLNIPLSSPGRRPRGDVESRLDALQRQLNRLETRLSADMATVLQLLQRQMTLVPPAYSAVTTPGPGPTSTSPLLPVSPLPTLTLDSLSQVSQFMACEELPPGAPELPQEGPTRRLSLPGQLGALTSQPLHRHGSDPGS

[6] = target: T2, Voltage-gated inwardly rectifying potassium channel KCNH2; test: Inhibition of human ERG by patch clamp assay
[7] = Half life in rat at 2 mg/kg, iv; format: ADME, organism-based; parameters: dose 2 mg/kg, route intravenous; conditions: in vivo
[8] = Cmax in rat at 10 mg/kg, po; format: ADME, organism-based; parameters: dose 10 mg/kg, route oral; conditions: in vivo
[9] = Oral bioavailability in rat at 10 mg/kg; format: ADME, organism-based; conditions: in vivo
[10] = Clearance in rat at 2 mg/kg, iv; format: ADME, organism-based; parameters: dose 2 mg/kg, route intravenous; conditions: in vivo
[11] = Volume of distribution at steady state in rat at 2 mg/kg, iv; format: ADME, organism-based; parameters: dose 2 mg/kg, route intravenous; conditions: in vivo, read-out: Vdss

Row | IC50 [1] [nM] | IC50 [2] [nM] | Structure (SMILES) | inhibition in vivo at 30 mg/kg [3] [%] | inhibition in vivo at 30 mg/kg [4] [%] | IC50 [5] [nM] | IC50 [6] [nM] | half-life [7] [h] | Cmax [8] [nM] | bioavailability [9] [%] | clearance [10] [mL/min/kg] | Vd [11] [L/kg]
1 | 733 | 2040 | NC(=O)C1CCN(Cc2ccc(Oc3nc4cccnc4s3)cc2)CC1 | – | – | – | – | – | – | – | – | –
2 | 3 | 14 | c1cnc2nc(Oc3ccc(CN4CCCCC4)cc3)sc2c1 | 48 | 67 | > 10000 | – | – | – | – | – | –
3 | 614 | 723 | c1cc2nc(Oc3ccc(CN4CCCCC4)cc3)sc2cn1 | – | – | – | – | – | – | – | – | –
4 | 1800 | – | c1cc2sc(Oc3ccc(CN4CCCCC4)cc3)nc2cn1 | – | – | – | – | – | – | – | – | –
5 | – | 82 | Cc1ccnc2nc(Oc3ccc(CN4CCCCC4)cc3)sc12 | 42 | 12 | – | – | – | – | – | – | –
6 | – | 245 | Clc1cnc2nc(Oc3ccc(CN4CCCCC4)cc3)sc2c1 | – | – | > 10000 | – | – | – | – | – | –
7 | 8 | 18 | c1cnc2nc(Oc3ccc(OCCN4CCCCC4)cc3)sc2c1 | 62 | 65 | – | – | – | – | – | – | –
8 | 16 | 30 | NC(=O)C1CCN(CCOc2ccc(Oc3nc4ncccc4s3)cc2)CC1 | 71 | 80 | > 10000 | – | – | – | – | – | –
9 | 6 | 20 | O=C1CCCN1C1CCN(CCOc2ccc(Oc3nc4ncccc4s3)cc2)CC1 | 76 | 89 | > 10000 | 2500 | – | – | – | – | –
10 | 7 | 30 | CC(=O)N1CC2CN(CCOc3ccc(Oc4nc5ncccc5s4)cc3)CC2C1 (centres undefined) | 86 | 81 | > 10000 | – | – | – | – | – | –
11 | 7 | 18 | CC(=O)N1CC2CC1CN2CCOc1ccc(Oc2nc3ncccc3s2)cc1 (centres undefined) | 72 | 84 | – | – | – | – | – | – | –
12 | – | 24 | c1cnc2nc(Oc3ccc(CCN4CCCCC4)cc3)sc2c1 | 36 | 70 | > 10000 | – | – | – | – | – | –
13 | 11 | 50 | NC(=O)C1CCN(CCc2ccc(Oc3nc4ncccc4s3)cc2)CC1 | 60 | 76 | > 10000 | – | – | – | – | – | –
14 | 6 | 22 | CC(=O)N1CC2CN(CCc3ccc(Oc4nc5ncccc5s4)cc3)CC2C1 (centres undefined) | 79 | 86 | > 10000 | – | – | – | – | – | –
15 | 14 | 30 | CC(=O)N1CC2CC1CN2CCc1ccc(Oc2nc3ncccc3s2)cc1 (centres undefined) | 68 | 90 | – | – | – | – | – | – | –
16 | 6 | 27 | O=C1CCCN1C1CCN(Cc2ccc(Oc3nc4ncccc4s3)cc2)CC1 | 88 | 81 | > 10000 | > 10000 | – | – | – | – | –
17 | – | 10 | CC(=O)N1CC2CN(Cc3ccc(Oc4nc5ncccc5s4)cc3)CC2C1 (centres undefined) | 95 | 57 | – | – | – | – | – | – | –
18 | 5 | 7 | CC(=O)N1CC2CC1CN2Cc1ccc(Oc2nc3ncccc3s2)cc1 (centres undefined) | 88 | 92 | > 10000 | > 10000 | 3.3 | 3300 | 125 | 7 | 1.4
19 | 6 | 37 | NC(=O)C1CCN(Cc2ccc(Oc3nc4ncccc4s3)cc2)CC1 | 89 | 85 | 8900 | > 10000 | – | – | – | – | –

Row | Structure (SMILES) | IC50 [1] [nM] | IC50 [2] [nM] | inhibition in vivo at 30 mg/kg [3] [%] | inhibition in vivo at 30 mg/kg [4] [%] | IC50 [5] [nM] | IC50 [6] [nM] | half-life [7] [h] | Cmax [8] [nM] | bioavailability [9] [%] | clearance [10] [mL/min/kg] | Vd [11] [L/kg]
20 | CC(=O)NC1CC2CCC(C1)N2CCOc1ccc(Oc2nc3ncccc3s2)cc1 (centres undefined) | 4 | 24 | 74 | 85 | – | – | – | – | – | – | –
21 | O=C1CCCN1C1CCN(CCc2ccc(Oc3nc4ncccc4s3)cc2)CC1 | 14 | 65 | 75 | 86 | – | 2800 | – | – | – | – | –
22 | CC(=O)NC1CC2CCC(C1)N2CCc1ccc(Oc2nc3ncccc3s2)cc1 (centres undefined) | 0.3 | – | 78 | 85 | – | – | – | – | – | – | –
23 | CC(=O)NC1CC2CCC(C1)N2Cc1ccc(Oc2nc3ncccc3s2)cc1 (centres undefined) | 1 | 20 | 70 | 81 | – | – | 2 | 1200 | 65 | 20 | 3.5
